Laboratory results taken from ChEMBL document CHEMBL4732174, “Discovery of 6-(7-Nitro-2,1,3-benzoxadiazol-4-ylthio)hexanol Derivatives as Glutathione Transferase Inhibitors with Favorable Selectivity and Tolerated Toxicity” (J Med Chem, 2021).

Assays:
HOS = assay: Antiproliferative activity against human HOS cells assessed as inhibition of cell proliferation incubated for 72 hrs by MTT assay; type: functional, cell-based
143B [1] = assay: Antiproliferative activity against human 143B cells assessed as inhibition of cell proliferation incubated for 72 hrs by MTT assay; type: functional, cell-based
L02 = assay: Cytotoxicity against human L02 cells assessed as reduction in cell viability incubated for 72 hrs by MTT assay; type: cell-based; conditions: L02, 72 h
[2] = molecular target: T1, Glutathione S-transferase Mu 2 (Homo sapiens, UniProt P28161); assay: Inhibition of GSTM2-2 (unknown origin) using reduced GSH and CDNB as substrate incubated for 10 mins followed by substrate addition by microplate reader analysis
T1 sequence (P28161 whole entry): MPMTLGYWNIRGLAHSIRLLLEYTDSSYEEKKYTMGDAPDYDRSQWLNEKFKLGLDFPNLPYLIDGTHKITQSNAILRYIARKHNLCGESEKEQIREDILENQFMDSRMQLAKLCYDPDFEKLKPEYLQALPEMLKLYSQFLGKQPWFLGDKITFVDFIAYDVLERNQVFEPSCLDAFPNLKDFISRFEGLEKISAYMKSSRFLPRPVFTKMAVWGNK

HUVEC = assay: Cytotoxicity against HUVEC assessed as reduction in cell viability incubated for 72 hrs by MTT assay; type: cell-based; conditions: Homo sapiens
A549 = assay: Antiproliferative activity against human A549 cells assessed as inhibition of cell proliferation incubated for 72 hrs by MTT assay; type: functional, cell-based; conditions: A549, 72 h
[3] = Antiproliferative activity against […] B16 cells assessed as inhibition of cell proliferation incubated for 72 hrs by MTT assay; type: functional, cell-based; conditions: B16, 72 h
[4] = molecular target: Glutathione S-transferase P (Homo sapiens, UniProt P09211); assay: Inhibition of GSTP1-1 (unknown origin) using reduced GSH and CDNB as substrate incubated for 10 mins followed by substrate addition by microplate reader analysis
Glutathione S-transferase P, sequence (P09211 whole entry): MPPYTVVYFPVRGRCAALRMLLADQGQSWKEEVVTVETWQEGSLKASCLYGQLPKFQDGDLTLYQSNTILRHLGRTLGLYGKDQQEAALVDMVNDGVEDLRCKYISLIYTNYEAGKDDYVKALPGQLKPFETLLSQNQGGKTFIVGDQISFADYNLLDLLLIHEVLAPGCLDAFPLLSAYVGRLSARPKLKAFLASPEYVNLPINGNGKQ

[5] = Water solubility of the compound measured by UV-Visible spectral analysis; type: physicochemical; conditions: buffer
143B [6] = assay: Antitumor activity against human 143B cells xenografted in BALB/c nude mouse assessed as tumor growth inhibition at 5 mg/kg, po administered once daily for 28 consecutive days relative to control; type: functional; conditions: 672 h, time 28 day, read-out: TGI

SMILES	IC50 (HOS)	IC50 (143B [1])	IC50 (L02)	IC50 [2]	IC50 (HUVEC)	IC50 (A549)	IC50 [3]	IC50 [4]	solubility [5]	inhibition in vivo at 5 mg/kg (143B [6])
O=C(CCC(=O)OCCCCCCSc1ccc([N+](=O)[O-])c2nonc12)Nc1ccc(F)c(Cl)c1	2800 nM	2990 nM	4570 nM	470 nM	2320 nM	3210 nM	4170 nM	9850 nM	–	–
COc1ccc(NC(=O)CCC(=O)OCCCCCCSc2ccc([N+](=O)[O-])c3nonc23)cc1	1800 nM	3060 nM	8170 nM	130 nM	1590 nM	6480 nM	2870 nM	420 nM	–	–
O=C(CCC(=O)OCCCCCCSc1ccc([N+](=O)[O-])c2nonc12)Nc1ccc(Br)cc1	2160 nM	2710 nM	4330 nM	32000 nM	1610 nM	3340 nM	2640 nM	5090 nM	–	–
O=C(CCC(=O)OCCCCCCSc1ccc([N+](=O)[O-])c2nonc12)Nc1ccc(C(F)(F)F)cc1	3200 nM	2100 nM	5010 nM	90 nM	1390 nM	4020 nM	1120 nM	5050 nM	–	–
O=C(O)CCC(=O)OCCCCCCSc1ccc([N+](=O)[O-])c2nonc12	8740 nM	2830 nM	1890 nM	160 nM	740 nM	3640 nM	3650 nM	530 nM	–	–
COc1ccc(NC(=O)CCC(=O)OCCCCCCSc2ccc([N+](=O)[O-])c3nonc23)cc1OC	1390 nM	2770 nM	4100 nM	360 nM	870 nM	3890 nM	2350 nM	6470 nM	–	–
COc1ccccc1NC(=O)CCC(=O)OCCCCCCSc1ccc([N+](=O)[O-])c2nonc12	2850 nM	2120 nM	4490 nM	280 nM	1610 nM	1870 nM	1380 nM	4050 nM	–	–
O=C(CCC(=O)OCCCCCCSc1ccc([N+](=O)[O-])c2nonc12)Nc1ccccc1Cl	–	2430 nM	5850 nM	330 nM	2950 nM	2750 nM	2390 nM	15500 nM	–	–
O=C(CCC(=O)OCCCCCCSc1ccc([N+](=O)[O-])c2nonc12)Nc1ccc(F)cc1	2080 nM	2500 nM	6460 nM	320 nM	1740 nM	6300 nM	2020 nM	8570 nM	–	–
O=C(CCC(=O)OCCCCCCSc1ccc([N+](=O)[O-])c2nonc12)Nc1ccccc1F	2350 nM	3030 nM	4270 nM	350 nM	840 nM	2440 nM	2120 nM	9890 nM	–	–
O=C(CCC(=O)N1CCCCC1)OCCCCCCSc1ccc([N+](=O)[O-])c2nonc12	1790 nM	1900 nM	3970 nM	110 nM	1990 nM	2510 nM	860 nM	500 nM	–	–
O=C(CCC(=O)OCCCCCCSc1ccc([N+](=O)[O-])c2nonc12)NCCN1CCCC1	3300 nM	5580 nM	6580 nM	200 nM	6070 nM	3240 nM	3500 nM	460 nM	Soluble	–
Cc1ccc(NC(=O)CCC(=O)OCCCCCCSc2ccc([N+](=O)[O-])c3nonc23)cc1	3340 nM	3250 nM	7320 nM	390 nM	2340 nM	5240 nM	1950 nM	6800 nM	–	–
CN(C)CCNC(=O)CCC(=O)OCCCCCCSc1ccc([N+](=O)[O-])c2nonc12	5020 nM	2190 nM	5980 nM	160 nM	2160 nM	5550 nM	1140 nM	540 nM	Soluble	–
O=C(CCC(=O)OCCCCCCSc1ccc([N+](=O)[O-])c2nonc12)NCCN1CCOCC1	1810 nM	2820 nM	3010 nM	100 nM	1070 nM	2150 nM	1800 nM	35000 nM	Soluble	–
O=C(CCC(=O)OCCCCCCSc1ccc([N+](=O)[O-])c2nonc12)Nc1ccccc1	2120 nM	3850 nM	6490 nM	700 nM	2490 nM	1960 nM	1260 nM	10200 nM	–	–
O=C(CCC(=O)N1CCOCC1)OCCCCCCSc1ccc([N+](=O)[O-])c2nonc12	1010 nM	1530 nM	3240 nM	170 nM	5340 nM	1670 nM	820 nM	330 nM	–	–
Cc1ccccc1NC(=O)CCC(=O)OCCCCCCSc1ccc([N+](=O)[O-])c2nonc12	4020 nM	4660 nM	9490 nM	440 nM	1410 nM	4200 nM	6490 nM	4100 nM	–	–
O=[N+]([O-])c1ccc(SCCCCCCO)c2nonc12	1240 nM	4080 nM	–	20 nM	–	2880 nM	1350 nM	–	–	38.6%
CCN(CC)CCCNC(=O)CCC(=O)OCCCCCCSc1ccc([N+](=O)[O-])c2nonc12	9060 nM	3440 nM	6770 nM	440 nM	2950 nM	2570 nM	2940 nM	9550 nM	Soluble	–
O=C(CCC(=O)OCCCCCCSc1ccc([N+](=O)[O-])c2nonc12)Nc1cccc(Cl)c1	1920 nM	2890 nM	6930 nM	1100 nM	1090 nM	5290 nM	3110 nM	28800 nM	–	–
